The term ED50 denotes the dose at which the effect has come halfway, by size or by number of responders.

A short description of data set [1]: Analgesic effect by acetic acid writhing method. It is filed as in vivo, mice of ddY strain. The note with it: Mus musculus, 20 min; oral, mice; 0.7% acetic acid i.p. 20 min after dosing; read-out: Analgesic action (ED50), Writhing method. Here is the method:
Test 1: ANALGESIC EFFECT BY ACETIC ACID WRITHING METHOD (Koster et al., Fed Proc., 18, 412 (1959))
Ten mice of ddY strain weighing 18-24 g were used in testing each compound. Twenty minutes after oral administration of test compounds, 0.1 ml/10 g of 0.7% acetic acid solution was injected intraperitoneally and the number of writhing syndromes was recorded for 10 minutes from 10 minutes after acetic acid injection. ED50 values were calculated from inhibition percent for each test compound.
On the technique in general: An intraperitoneal irritant provokes the stretching counted in writhing tests.

Data set [2] in a line: Analgesic effect by tail pressure method. In kind it is in vivo, mice of ddY strain. The following applies: Mus musculus; oral, mice; pain threshold at 30, 60, 90 and 120 min; read-out: Analgesic action (ED50), Tail pressure method. Here is the method: Test 2: ANALGESIC EFFECT BY TAIL PRESSURE METHOD (Keijiro Takagi et al., Yakugaku Zasshi, 78, 553 ([…])) Ten mice of ddY strain weighing 18-24 g and showing pain threshold of 50-80 mmHg were used in testing each compound. The pain threshold was measured at 30, 60, 90 and 120 minutes after oral administration of the test compounds and positive analgesic response was recorded when the pain threshold was two or more times higher than pre-administration. ED50 values were calculated from the numbers of positive mice.

The nature of data set [3]: Analgesic effect by D'Amour-Smith's method. The note with it: Mus musculus; oral, mice; reaction time at 30, 60, 90 and 120 min; read-out: Analgesic action (ED50), D'Amour-Smith's method. It is filed as in vivo, mice of ddY strain. How it is done: Test 3: ANALGESIC EFFECT BY D'AMOUR-[…] METHOD (D'Amour et al., J. Pharmacol. Exp. Ther., 72, 74 (1941)) Ten mice of ddY strain weighing 18-24 g and showing reaction times of 2-5 seconds were used in testing each compound. The reaction time was measured at 30, 60, 90 and 120 minutes after oral administration of the test compounds and positive analgesic response was recorded when the reaction time was two or more times longer than pre-administration. ED50 values were calculated from the number of positive mice.

Data set [4] is described as follows: Anti-inflammatory effect by carrageenin edema method. In kind it is in vivo, male rats of Wistar strain. The note with it: rats; for Ratio of antiedematous action (100 mg/kg test compound/100 mg/kg phenylbutazone): ratio of inhibition % at 100 mg/kg oral, values marked * in the anti-inflammatory column; for ED50: Rattus norvegicus, oral, carrageenin edema, foot volume at 3 hours, read-out: Anti-inflammatory action (ED50). How it is done: Test 4: ANTI-INFLAMMATORY EFFECT BY CARRAGEENIN EDEMA METHOD (Winter et al., Proc. Soc. Exp. Biol. Med., 111, 544 (1962)) Six male rats of Wistar strain weighing 110-120 g were used in testing each compound. […] ED50 values were calculated from the inhibition percent of foot volume, and the ratios of anti-edematous action of test compounds were calculated by the formula; (the inhibition % of 100 mg/kg test compounds)/(the inhibition % of 100 mg/kg phenylbutazone).
(In general: Carrageenan injected into the paw causes an acute inflammation.)

The nature of another data set: in vivo. Also noted: species or system male rats of Wistar strain. The following applies: rat, po. How it is done: Test 5: ULCERATION IN STOMACH (Brodie et al., Gastroenterology, 56, 206 (1969))
Ten male rats of Wistar strain weighing 190-200 g were used for each dose. Rats were deprived of food for 24 hours before experiments. Test compounds were administered orally and 18 hours later the rats were sacrificed, thereafter the area of each gastric lesion was measured and summed under dissecting microscope (×9). UD50 values were calculated from the gastric lesion area.

Where a name gives a salt, the structure may show the parent alone.

As for `Cc1c(N(C)C)c(=O)n(-c2ccccc2)n1C` [Aminopyrin, reference compound], the ED50 in data set [1] was 38 mg/kg; in data set [2], 98 mg/kg; in data set [3], 225 mg/kg.
In the case of `Cn1c2ccccc2c2oc(C(=O)NCCCN3CCCCC3)cc21` [Compound No. 2, 4-methyl-furo[3,2-b]indole-2-(N-piperidinopropyl)carboxamide], the “Ratio of antiedematous action (100 mg/kg test compound/100 mg/kg phenylbutazone)” value (“Ratio of antiedematous action” for short) in data set [4] was 0.82. Further, the ED50 in data set [1] came out at 36 mg/kg; in data set [2], 68 mg/kg; in data set [3], 115 mg/kg.
Turning to `O=C(NCCCN1CCCCC1)c1cc2[nH]c3cc(Cl)ccc3c2o1` [Compound No. 5, 6-chloro-furo[3,2-b]indole-2-(N-piperidinopropyl)carboxamide], the “Ratio of antiedematous action” value in data set [4] was 0.73. Moreover, the values for the median effective dose (ED50) in data set [1], in data set [2] and in data set [3] were 64.2 mg/kg, 80 mg/kg and 100 mg/kg, respectively. This compound displayed a TD50 at 18 h in “in vivo” of 400 mg/kg.
As to `Cn1c2cc(Cl)ccc2c2oc(C(=O)NCCCN3CCCCC3)cc21` [Compound No. 6, 6-chloro-4-methyl-furo[3,2-b]indole-2-(N-piperidinopropyl)carboxamide], in data set [4], the “Ratio of antiedematous action” value stood at 1.29. Also, the median effective dose (ED50) in data set [1] amounted to 29.5 mg/kg; in data set [2], 50 mg/kg; in data set [3], 59 mg/kg.
For `CCn1c2cc(Cl)ccc2c2oc(C(=O)NCCCN3CCCCC3)cc21` [Compound No. 7, 6-chloro-4-ethyl-furo[3,2-b]indole-2-(N-piperidinopropyl)carboxamide] the same measures were 1.45, 56.4 mg/kg, 41.8 mg/kg and 31 mg/kg.
For `CC(C)n1c2cc(Cl)ccc2c2oc(C(=O)NCCCN3CCCCC3)cc21` [Compound No. 8, 6-chloro-4-isopropyl-furo[3,2-b]indole-2-(N-piperidinopropyl)carboxamide], in that order: 0.56, 68.4 mg/kg, 87 mg/kg and 100 mg/kg.
`Cn1c2cc(C(F)(F)F)ccc2c2oc(C(=O)NCCCN3CCCCC3)cc21` [Compound No. 10, 4-methyl-6-trifluoromethyl-furo[3,2-b]indole-2-(N-piperidinopropyl)carboxamide]: the ED50 in data set [4] was 45.4 mg/kg; in data set [1], 32.5 mg/kg; in data set [2], 38 mg/kg; in data set [3] it was 49 mg/kg. The compound also yielded a TD50 at 18 h in the data set “in vivo” of more than 200 mg/kg.
Regarding `CCn1c2cc(C(F)(F)F)ccc2c2oc(C(=O)NCCCN3CCCCC3)cc21` [Compound No. 11, 4-ethyl-6-trifluoromethyl-furo[3,2-b]indole-2-(N-piperidinopropyl)carboxamide], the “Ratio of antiedematous action” value in data set [4] came to 1.29. Further, the ED50 in data set [1] is 30 mg/kg; in data set [2], 41 mg/kg; in data set [3], 50 mg/kg.
`CC(C)n1c2cc(C(F)(F)F)ccc2c2oc(C(=O)NCCCN3CCCCC3)cc21` [Compound No. 12, 4-isopropyl-6-trifluoromethyl-furo[3,2-b]indole-2-(N-piperidinopropyl)carbonxamide]: the “Ratio of antiedematous action” value in data set [4] was found to be 2.19. Further, the 50% effective dose (ED50) in data set [1] was found to be 68.3 mg/kg; in data set [2] it was 93 mg/kg; in data set [3], 300 mg/kg. In addition, in the data set “in vivo”, the TD50 at 18 h was 351 mg/kg.
Take `CCn1c2cc(F)ccc2c2oc(C(=O)NCCCN3CCCCC3)cc21` [Compound No. 13, 4-ethyl-6-fluoro-furo[3,2-b]indole-2-(N-piperidinopropyl)carboxamide]: the “Ratio of antiedematous action” value in data set [4] turned out to be 0.84. For the same compound, the values for the ED50 in data set [1], in data set [2] and in data set [3] were 87.5 mg/kg, 90.8 mg/kg and 79.9 mg/kg, respectively.
`CCCn1c2cc(OC)ccc2c2oc(C(=O)NCCCN3CCCCC3)cc21` [Compound No. 14, 6-methoxy-4-n-propyl-furo[3,2-b]-indole-2-(N-piperidinopropyl)carboxamide]: the “Ratio of antiedematous action” value in data set [4] came out at 0.92. In addition, the ED50 in data set [1] is 81.2 mg/kg; in data set [2], 84.6 mg/kg; in data set [3], more than 100 mg/kg.
For `CCCn1c2cc(C)ccc2c2oc(C(=O)NCCCN3CCCCC3)cc21` [Compound No. 15, 6-methyl-4-n-propyl-furo[3,2-b]indole-2-(N-piperidinopropyl)carboxamide], in data set [4], the “Ratio of antiedematous action” value came to 0.78. Further, the 50% effective dose (ED50) in data set [1] amounted to 91 mg/kg; in data set [2], 79.2 mg/kg; in data set [3], 87.6 mg/kg.
Regarding `CC(C)Cc1ccc(C(C)C(=O)O)cc1` (centres unmarked) [Ibuprofen, reference compound], the ED50 was 66.5 mg/kg in data set [4], 195 mg/kg in data set [1], 324 mg/kg in data set [2] and more than 300 mg/kg in data set [3]. Further, the TD50 at 18 h in the data set “in vivo” was 278 mg/kg.
For `CCCCC1C(=O)N(c2ccccc2)N(c2ccccc2)C1=O` [Phenylbutazone, reference compound] the same measures were 110 mg/kg, 123 mg/kg, more than 300 mg/kg, more than 300 mg/kg and 145 mg/kg.
For `O=C(Cn1c(=O)sc2ccc(Cl)cc21)N1CCN(CCO)CC1` [Tiaramide HCl, reference compound] the same measures were 84.3 mg/kg, 66 mg/kg, 110 mg/kg, 93 mg/kg and more than 200 mg/kg.

The record behind these values is US4288596A, “Furoindoles” (priority 1978, dated 1981).
